Assays:
[1] = Pharmacokinetic in rats: thiol active metabolite in plasma; type: in vivo, Male Sprague-Dawley rats; settings: rat plasma, oral, 10 mg/kg
Method: Male Sprague-Dawley rats were used to conduct pharmacokinetic experiment.
Test compounds (clopidogrel and exemplary compounds provided herein) was administrated orally or intravenously to rat under fast condition. Blood samples were collected via jugular vein at 5 min, 15 min, 30 min, 60 min and 120 min time points with EDTA-K2 (anticoagulant), 3′-methoxyphenacyl bromide (MPBr, derivatization reagent) and phenylmethylsulfonyl fluoride (PMSF, stabilizer). Plasma samples were then harvested by centrifuging at 1500 g for 10 min under 2˜8° C. and stored at −80° C. after separation. Plasma samples were loaded to a LC-MS/MS instrument after extraction to determine the concentration of the thiol active metabolite.

platelet aggregation = assay: Antiaggregatory action in rats (ex vivo ADP-induced platelet aggregation); set-up: species or system Male Sprague-Dawley rats; settings: rat, oral
Method: Male Sprague-Dawley rats were used for ex vivo platelet aggregation experiments. […] The number of platelets in PRP was measured by hematology analyzer (Siemens, ADVIA2120), and adjusted to 4×10^8/mL with PPP. Platelet aggregation was determined using turbidimetric aggregometry method by an automatic platelet aggregometer ([…]). The aggregometer was primarily warmed up to 37° C., and PRP (290 μL) sample was added to the cuvette and set in the automatic platelet aggregometer. […] Antiaggregatory action of test compounds was expressed as inhibition (%) which determined by the relation: […]

[2] = loading dose 300-600 mg; cited from earlier work
[3] = human body; cited from earlier work

Question: For `COC(=O)[C@H](c1ccccc1Cl)N1CCC(SCOC(=O)OC(C)C)/C(=C/C(=O)O)C1` (stereo partly shown) [Compound 1a], which “peak concentration of the thiol active metabolite compared with clopidogrel” value (“peak concentration … compared with clopidogrel” for short) [1] is on record?
Answer: significantly higher

Question: For `COC(=O)[C@H](c1ccccc1Cl)N1CCC(SCOC(=O)OC(C)C)/C(=C\C(=O)O)C1` (stereo partly shown) [Compound 1b], which “peak concentration … compared with clopidogrel” value [1] is on record?
Answer: significantly higher

Question: What about the inhibition at 2 mg/kg (platelet aggregation; Platelet, 2 mg/kg, ADP 10 μM, read-out: maximum inhibition of platelet aggregation) of the same compound?
Answer: ~45%

Question: What about the “time to maximum inhibition of platelet aggregation” value (platelet aggregation; 2 mg/kg) of the same compound?
Answer: 60 min

Question: Which “peak concentration … compared with clopidogrel” value [1] does the source give for `CCOC(=O)/C=C1\CN([C@H](C(=O)OC)c2ccccc2Cl)CCC1SCOC(=O)OC(C)C` (stereo partly shown) [Compound 2a] here?
Answer: significantly higher

Question: Which results are given for `COC(=O)[C@H](c1ccccc1Cl)N1CCc2sccc2C1` [clopidogrel, Clopidogrel]?
Answer: onset of therapeutic effect after loading dose administration [2]: 2 h; fraction producing inactive metabolites through non-oxidative hydrolysis [3]: about 85%; fraction undergoing two-step oxidation (cytochrome P450, mainly CYP2C19) to active metabolite H4 [3]: about 15%; inhibition at 10 mg/kg (platelet aggregation; Platelet, 10 mg/kg, ADP 10 μM, read-out: maximum inhibition of platelet aggregation): ~45%; time to maximum inhibition of platelet aggregation (platelet aggregation; 10 mg/kg): about 120 minutes
